Data taken from patent US20250320443A1, “Human Brain Organoid, methods for making the brain organoid, and methods of using the brain organoid for high throughput rapid screening and/or evaluation of agents” (NeyroblastGX LLC, priority 2023, published 2025).

How the values were obtained:
[1] = system: blood CSF barrier brain OrG (ChP OrG); experiment: ChP OrG drug permeability into CSF (optical density of collected CSF); type: cell-based, human; conditions: 72 h, SLCP Cur 500 μM, CSF collected via syringe
Description: (§1) FIG. 6A-6H. ChP OrG efficiently screens drug permeability. (FIG. 6A) We have used curcumin (Cur), a natural polyphenolic antioxidant that can disaggregate Amyloid beta (AB) and tau. (FIG. 6B) We have prepared the Cur with H2O and lipids to generate a solid lipid curcumin particle (SLCP). […] (FIG. 6D-6F) We added SLCP and non-formulated (H2O dissolved) Cur to the blood CSF barrier brain OrG (ChP OrG) for 72 h and obtained images. (FIG. 6G) We then collected CSF via a syringe and processed it to measure optical density using a plate reader to determine whether SLCP Cur (500 μM) was permeable into CSF. […] Our novel B-CSFb grown on an HT electrode plate is highly efficient in studying drug permeability on the HT scale and provides insight into using our ChP OrG to accelerate the drug development process for various CNS diseases. Scale bar 100 μm.
To generate ChP OrG, we use methods similar to those used to generate cCerebral OrG, except for the composition of OrGspheroid SRB media, which contained 50% KSR, 0.1% lipid-rich albumin (AlbuMAX), including all other components as stated in Example 1. For ChP OrG, neural induction was up to 9 days. Neural induction medium was the same as Example 2. Further, neural-induced OrGspheroid (>500 μm) was seeded with gel-matrix domes with a volume of OrGspheroid to MvECs at a 1:20 ratio. […]

[2] = Preparation of curcumin with H2O (visual); type: physicochemical; conditions: glass vial, non-formulated
Description: as §1

[3] = system: synaptophysin and PSD-95 in cCerebral OrG; experiment: ICC of synaptic marker proteins in cCerebral OrG injected with AD toxic proteins; type: cell-based, human; conditions: AB or tau alone, injected twice with 10-50 μl (1 mg/ml)
Description: FIG. 8A-8D. Verify compatibility to screening NGL ready-to-use brain OrG in other screening platforms with multiple agents. (FIG. 8A) NGL cCerebral was injected twice with 10-50 μl (1 mg/ml) of Alzheimer's disease (AD) toxic proteins (AB and tau oligomers). (FIG. 8B) We found AB and tau together, especially 50 μg concentration, reduced in higher levels of pre- and post-synaptic density marker proteins (synaptophysin and PSD-95) compared to 10 μg concentrations using ICC. […] (FIG. 8C) We compared synaptic loss with the electrode plate signal developed by Applied Biophysics (ABP). We have plated our cCerebral OrG onto ABP electrodes with gel-matrix twice coating to attach efficiently onto cCerebral OrG onto electrodes. Usually, marketed electrode attaching floating OrG tends to be challenging. OrG often slips or moves away from the electrode, thus needing twice or triple-coating layers with gels, providing a great insight into our floating electrode plate novelty compared to other marketed electrodes. After the cCerebral OrG attachment was maintained and grown on the electrode plate for one week and treated with or without the combination of AB and tau (10 and 50 μg).
ICC is a common cellular protein or antigen-detecting and visualization technique that can recognize the target of interest or specific marker expression in cells via quantification imaging. […]

brain OrG = experiment: NGL HT electrode plate signal of brain OrG; type: cell-based, human; conditions: 64000 Hz
Excerpt: HT electroconductive sensing array combined with our optimized brain OrG is the first innovative technology that can be marketed for floating brain OrG for screening pathogens, drugs, and toxicity at a rapid and robust scale. Brain OrG-specific shape 1-3 mm range grown on an electroconductive plate designed and developed by NGL with pay-based service to obtain ECIS base electrode with a desired signal with or without agents. ECIS here refers to electric cell-substrate impedance sensing. We first developed 8 well plates with an electrode. […] We used a nanofarads capacitance (nF) signal curve at 64000 Hz. We determined that the media sample (without OrG, baseline) average signal is 3.7 nF compared to cerebral OrG (˜2 nF), and the same measurement was also acquired by resistance (Ohms).
To determine HT screening various agents, we designed and developed a next-generation HT electrode plate where brain OrG can grow in floating conditions with electrode chambers that can control OrG size without batch-to-batch variations. To develop these electrode sensor chambers (FIG. 7A-7B), we have designed and developed a typical 8×12 configuration that allows 96 samples to be measured and can be upgraded to 384 wells. […] These converters will sample at four times the excitation frequency, thus allowing both the amplitude and phase of the signal at V1 to V2 be measured with an algorithm.

| Compound | Cur concentration in CSF (permeable into CSF / B-CSFb) [1] | Cur concentration in CSF (permeable into CSF / B-CSFb) ([1]; listed as unformulated Cur) | behaviour when prepared with H2O [2] | synaptic proteins (synaptophysin and PSD-95) [3] | brain OrG-derived toxic response signal compared to untreated brain OrG (brain OrG) |
| --- | --- | --- | --- | --- | --- |
| COc1cc(/C=C/C(=O)CC(=O)/C=C/c2ccc(O)c(OC)c2)ccc1O [non-formulated Cur, curcumin] | not detected in CSF | undetected in CSF | precipitated on the bottom of the glass vial | – | – |
| AB: synthetic amyloid-beta (AB) oligomers, Alzheimer's disease toxic protein | – | – | – | unable to significantly reduce synaptic proteins | significantly and sensitively differentiated |
